Assay results reported in paper PMC8998492 (2022).
One block for each compound: values may come before it.

What was measured:
[1] = tested on: c-myc promoter i-motif (DNA, i motif) CCCCACCTTCCCCACCCTCCCCACCCTCCCC; test: fluorescent displacement (FID); conditions: 100 mM KCl; 1 × BPES pH 5.5; tracer 1 μM G59 displaced, 2 μM DNA; 5 eq (5 μM) 3be
[2] = tested on: 5'-biotin c-myc G-quadruplex (DNA, G4) TTGAGGGTGGGTAGGGTGGGTAAA; test: SPR; conditions: 100 mM KCl; 20 mM Tris-HCl pH 7.4, 25 °C; DNA immobilised
[3] = tested on: 5'-biotin c-myc (i-motif) (DNA, i motif) CCCCACCTTCCCCACCCTCCCCACCCTCCCC; test: SPR; conditions: 100 mM KCl; 20 mM MES pH 5.5, 0.05% Tween-20, 25 °C; DNA immobilised
[4] = tested on: c-myc promoter i-motif (DNA, i motif) CCCCACCTTCCCCACCCTCCCCACCCTCCCC; test: fluorescent displacement (FID), microplate reader; conditions: 100 mM KCl; 1 × BPES; tracer G59 displaced
[5] = tested on: c-myc-C7G (DNA, i motif) CCCCACGTTCCCCACCCTCCCCACCCTCCCC; test: fluorescence enhancement; conditions: 100 mM KCl; 1 × BPES pH 5.5
[6] = tested on: c-myc-C16G (DNA, i motif) CCCCACCTTCCCCACGCTCCCCACCCTCCCC; test: fluorescence enhancement; conditions: 100 mM KCl; 1 × BPES pH 5.5
[7] = tested on: c-myc promoter i-motif (DNA, i motif) CCCCACCTTCCCCACCCTCCCCACCCTCCCC; test: ITC; conditions: 100 μM G59 injected into 4 μM DNA; KD = 1/Ka (Ka 5.94×10^5 M-1)
[8] = tested on: c-myc-C25G (DNA, i motif) CCCCACCTTCCCCACCCTCCCCACGCTCCCC; test: fluorescence enhancement; conditions: 100 mM KCl; 1 × BPES pH 5.5
[9] = tested on: c-myc-C25A (DNA, i motif) CCCCACCTTCCCCACCCTCCCCACACTCCCC; test: fluorescence enhancement; conditions: 100 mM KCl; 1 × BPES pH 5.5
[10] = tested on: c-myc-C16A (DNA, i motif) CCCCACCTTCCCCACACTCCCCACCCTCCCC; test: fluorescence enhancement; conditions: 100 mM KCl; 1 × BPES pH 5.5
[11] = tested on: c-myc promoter i-motif (DNA, i motif) CCCCACCTTCCCCACCCTCCCCACCCTCCCC; test: CD melting; conditions: 100 mM KCl; 1 × BPES pH 5.5; 2 μM DNA, 10 μM G59; Tm 53.1 to 59.9 °C
[12] = tested on: SS26 (DNA, single strand) ATACGATGCTTCACGGTGCTATCTG; test: fluorescence titration; conditions: 100 mM KCl; 20 mM Tris-HCl pH 7.4; also unstained in PAGE
[13] = tested on: c-myc-C25T (DNA, i motif) CCCCACCTTCCCCACCCTCCCCACTCTCCCC; test: fluorescence enhancement; conditions: 100 mM KCl; 1 × BPES pH 5.5
[14] = tested on: DS26 (DNA, duplex) CAATCGGATCGAATTCGATCCGATTG; test: fluorescence titration; conditions: 100 mM KCl; 20 mM Tris-HCl pH 7.4; also unstained in PAGE
[15] = tested on: c-myc-C16T (DNA, i motif) CCCCACCTTCCCCACTCTCCCCACCCTCCCC; test: fluorescence enhancement; conditions: 100 mM KCl; 1 × BPES pH 5.5
[16] = tested on: c-myc promoter i-motif (DNA, i motif) CCCCACCTTCCCCACCCTCCCCACCCTCCCC; test: fluorescence enhancement; conditions: 100 mM KCl; 1 × BPES pH 5.5
[17] = tested on: c-myc-C7T (DNA, i motif) CCCCACTTTCCCCACCCTCCCCACCCTCCCC; test: fluorescence enhancement; conditions: 100 mM KCl; 1 × BPES pH 5.5
[18] = tested on: c-myc-C7A (DNA, i motif) CCCCACATTCCCCACCCTCCCCACCCTCCCC; test: fluorescence enhancement; conditions: 100 mM KCl; 1 × BPES pH 5.5

relative replacement ratio [1]: 42.09%
SMILES: c1ccc2c(c1)c1cc(-c3cn(CCN4CCCC4)nn3)ccc1n2CCN1CCCC1

KD [2]: 46.2 µM
KD [3]: 9.52 µM
binding [4]: yes
SMILES: C[C@H]1O[C@@H](O[C@H]2CC[C@@]3(C)[C@@H](CC[C@]4(C)[C@@H]3C=CC3=C5CC(C)(C)CC[C@]5(CO)[C@H](O)C[C@]34C)[C@]2(C)CO)[C@H](O)[C@@H](O[C@@H]2O[C@H](CO)[C@@H](O)[C@H](O)[C@H]2O)[C@H]1O

FI/F0 [5]: 5.44
FI/F0 [6]: 6.03
KD [7]: 1.68 µM
FI/F0 [8]: 6.59
FI/F0 [9]: 17.15
FI/F0 [10]: 15.2
ΔTm [11]: 6.8 °C
binding [12]: weak
FI/F0 [13]: 17.92
binding [14]: weak
FI/F0 [15]: 18.23
FI/F0 [16]: 17.98
FI/F0 [17]: 18.35
FI/F0 [18]: 13.35
SMILES: O=C1c2cccc3c(-c4ccc5c(c4)c4cc(-c6ccc7c8c(cccc68)C(=O)N(CCN6CCCC6)C7=O)ccc4n5CCN4CCCC4)ccc(c23)C(=O)N1CCN1CCCC1
